From ChEMBL document CHEMBL4513137, “CO-ADD screening of University of Manchester (UK) compounds”
Values after ≈ are worked out from the molar mass of the structure shown.

test system: Klebsiella pneumoniae; assay: microbe, parasite or virus in culture; conditions: ATCC 700603, 18 h, ASSAY_TEST Inhibition of Bacterial Growth, detection method Absorption (OD600), MEDIA CAMHB, plate type 384well, NBS, CORNING #3640
Description: Antibacterial activity against Klebsiella pneumoniae MDR ATCC 70063 (CO-ADD:GN_003); MIC in CAMBH media using NBS plates, by OD(600)

MIC [µg/mL]	SMILES
> 32	Cc1cc(C)c(Nc2ccccc2-c2ccccc2[N+](=O)[O-])c(C)c1
> 32	O=[N+]([O-])c1ccccc1-c1ccccc1Nc1ccccc1
> 32	Cc1ccccc1Nc1ccccc1-c1ccccc1[N+](=O)[O-]
> 32	O=[N+]([O-])c1ccccc1-c1ccccc1N(Cc1ccccc1)c1ccccc1
> 32	Cc1cc(C)c(Nc2ccccc2-c2ccc([N+](=O)[O-])cc2[N+](=O)[O-])c(C)c1

SMILES	MIC [µg/mL]
C=C[C@]1(C)C[C@@H](OC(=O)CO)[C@]2(C)[C@H](C)CC[C@]3(CCC(=O)[C@H]32)[C@@H](C)[C@@H]1O [PLEUROMULIN]	> 32

test system: Escherichia coli; assay: microbe, parasite or virus in culture; conditions: ATCC 25922, 18 h, ASSAY_TEST Inhibition of Bacterial Growth, detection method Absorption (OD600), MEDIA CAMHB, plate type 384well, NBS, CORNING #3640
Description: Antibacterial activity against Escherichia coli ATCC 25922 (CO-ADD:GN_001); MIC in CAMBH media using NBS plates, by OD(600)

MIC [µg/mL]	SMILES
> 32	Cc1cc(C)c(Nc2ccccc2-c2ccccc2[N+](=O)[O-])c(C)c1
> 32	O=[N+]([O-])c1ccccc1-c1ccccc1Nc1ccccc1
> 32	Cc1ccccc1Nc1ccccc1-c1ccccc1[N+](=O)[O-]
> 32	O=[N+]([O-])c1ccccc1-c1ccccc1N(Cc1ccccc1)c1ccccc1
> 32	Cc1cc(C)c(Nc2ccccc2-c2ccc([N+](=O)[O-])cc2[N+](=O)[O-])c(C)c1

SMILES	MIC [µg/mL]
C=C[C@]1(C)C[C@@H](OC(=O)CO)[C@]2(C)[C@H](C)CC[C@]3(CCC(=O)[C@H]32)[C@@H](C)[C@@H]1O [PLEUROMULIN]	> 32

test system: Candida albicans; assay: microbe, parasite or virus in culture; conditions: ATCC 90028, ASSAY_TEST Inhibition of Fungal Growth, detection method Absorption (OD530), plate type 384well, NBS, CORNING #3640
Description: Antifungal activity against Candida albicans ATCC 90028 (CO-ADD:FG_001); MIC in YNB media using NBS plates, by OD630

MIC [µg/mL]	SMILES
16 (≈ 48.1 µM)	Cc1cc(C)c(Nc2ccccc2-c2ccccc2[N+](=O)[O-])c(C)c1
8 (≈ 27.6 µM)	O=[N+]([O-])c1ccccc1-c1ccccc1Nc1ccccc1
8 (≈ 26.3 µM)	Cc1ccccc1Nc1ccccc1-c1ccccc1[N+](=O)[O-]
32 (≈ 84.1 µM)	O=[N+]([O-])c1ccccc1-c1ccccc1N(Cc1ccccc1)c1ccccc1
4 (≈ 10.6 µM)	Cc1cc(C)c(Nc2ccccc2-c2ccc([N+](=O)[O-])cc2[N+](=O)[O-])c(C)c1

SMILES	MIC [µg/mL]
C=C[C@]1(C)C[C@@H](OC(=O)CO)[C@]2(C)[C@H](C)CC[C@]3(CCC(=O)[C@H]32)[C@@H](C)[C@@H]1O [PLEUROMULIN]	> 32

test system: Acinetobacter baumannii; assay: microbe, parasite or virus in culture; conditions: ATCC 19606, 18 h, ASSAY_TEST Inhibition of Bacterial Growth, detection method Absorption (OD600), MEDIA CAMHB, plate type 384well, NBS, CORNING #3640
Description: Antibacterial activity against Acinetobacter baumannii ATCC 19606 (CO-ADD:GN_034); MIC in CAMBH media using NBS plates, by OD600

MIC [µg/mL]	SMILES
> 32	Cc1cc(C)c(Nc2ccccc2-c2ccccc2[N+](=O)[O-])c(C)c1
> 32	O=[N+]([O-])c1ccccc1-c1ccccc1Nc1ccccc1
> 32	Cc1ccccc1Nc1ccccc1-c1ccccc1[N+](=O)[O-]
> 32	O=[N+]([O-])c1ccccc1-c1ccccc1N(Cc1ccccc1)c1ccccc1
> 32	Cc1cc(C)c(Nc2ccccc2-c2ccc([N+](=O)[O-])cc2[N+](=O)[O-])c(C)c1

SMILES	MIC [µg/mL]
C=C[C@]1(C)C[C@@H](OC(=O)CO)[C@]2(C)[C@H](C)CC[C@]3(CCC(=O)[C@H]32)[C@@H](C)[C@@H]1O [PLEUROMULIN]	> 32

test system: HEK293; assay: cells; type: functional; conditions: Homo sapiens, ATCC CRL1573, HEK293; ASSAY_TEST Inhibition of Cell Viability; detection method Resazurin; Fluorescence (ex560/em590); MEDIA DMEM with 10% FBS; plate type 384well; TC; CORNING #3712; time 18 hr

SMILES	CC50 [µg/mL]
Cc1cc(C)c(Nc2ccccc2-c2ccccc2[N+](=O)[O-])c(C)c1	13.1 (≈ 39.4 µM)
C=C[C@]1(C)C[C@@H](OC(=O)CO)[C@]2(C)[C@H](C)CC[C@]3(CCC(=O)[C@H]32)[C@@H](C)[C@@H]1O [PLEUROMULIN]	> 32
O=[N+]([O-])c1ccccc1-c1ccccc1Nc1ccccc1	2.15 (≈ 7.41 µM)
Cc1ccccc1Nc1ccccc1-c1ccccc1[N+](=O)[O-]	1.95 (≈ 6.41 µM)
O=[N+]([O-])c1ccccc1-c1ccccc1N(Cc1ccccc1)c1ccccc1	8.14 (≈ 21.4 µM)
Cc1cc(C)c(Nc2ccccc2-c2ccc([N+](=O)[O-])cc2[N+](=O)[O-])c(C)c1	15.7 (≈ 41.6 µM)

test system: Cryptococcus neoformans; assay: not given; conditions: not given

MIC [µg/mL]	SMILES
> 32	Cc1cc(C)c(Nc2ccccc2-c2ccccc2[N+](=O)[O-])c(C)c1
16 (≈ 55.1 µM)	O=[N+]([O-])c1ccccc1-c1ccccc1Nc1ccccc1
32 (≈ 105 µM)	Cc1ccccc1Nc1ccccc1-c1ccccc1[N+](=O)[O-]
> 32	O=[N+]([O-])c1ccccc1-c1ccccc1N(Cc1ccccc1)c1ccccc1
> 32	Cc1cc(C)c(Nc2ccccc2-c2ccc([N+](=O)[O-])cc2[N+](=O)[O-])c(C)c1

SMILES	MIC [µg/mL]
C=C[C@]1(C)C[C@@H](OC(=O)CO)[C@]2(C)[C@H](C)CC[C@]3(CCC(=O)[C@H]32)[C@@H](C)[C@@H]1O [PLEUROMULIN]	> 32

test system: Pseudomonas aeruginosa; assay: microbe, parasite or virus in culture; conditions: ATCC 27853, 18 h, ASSAY_TEST Inhibition of Bacterial Growth, detection method Absorption (OD600), MEDIA CAMHB, plate type 384well, NBS, CORNING #3640
Description: Antibacterial activity against Pseudomonas aeruginosa ATCC 27853 (CO-ADD:GN_042); MIC in CAMBH media using NBS plates, by OD(600)

MIC [µg/mL]	SMILES
> 32	Cc1cc(C)c(Nc2ccccc2-c2ccccc2[N+](=O)[O-])c(C)c1
> 32	O=[N+]([O-])c1ccccc1-c1ccccc1Nc1ccccc1
> 32	Cc1ccccc1Nc1ccccc1-c1ccccc1[N+](=O)[O-]
> 32	O=[N+]([O-])c1ccccc1-c1ccccc1N(Cc1ccccc1)c1ccccc1
> 32	Cc1cc(C)c(Nc2ccccc2-c2ccc([N+](=O)[O-])cc2[N+](=O)[O-])c(C)c1

SMILES	MIC [µg/mL]
C=C[C@]1(C)C[C@@H](OC(=O)CO)[C@]2(C)[C@H](C)CC[C@]3(CCC(=O)[C@H]32)[C@@H](C)[C@@H]1O [PLEUROMULIN]	> 32

test system: Staphylococcus aureus; assay: microbe, parasite or virus in culture; conditions: ATCC 43300, 18 h, ASSAY_TEST Inhibition of Bacterial Growth, detection method Absorption (OD600), MEDIA CAMHB, plate type 384well, NBS, CORNING #3640
Description: Antibacterial activity against Staphylococcus aureus MRSA ATCC 43300 (CO-ADD:GP_020); MIC in CAMBH media, using NBS plates, by OD(600)

MIC [µg/mL]	SMILES
> 32	Cc1cc(C)c(Nc2ccccc2-c2ccccc2[N+](=O)[O-])c(C)c1
16 (≈ 55.1 µM)	O=[N+]([O-])c1ccccc1-c1ccccc1Nc1ccccc1
4 (≈ 13.1 µM)	Cc1ccccc1Nc1ccccc1-c1ccccc1[N+](=O)[O-]
> 32	O=[N+]([O-])c1ccccc1-c1ccccc1N(Cc1ccccc1)c1ccccc1
32 (≈ 84.8 µM)	Cc1cc(C)c(Nc2ccccc2-c2ccc([N+](=O)[O-])cc2[N+](=O)[O-])c(C)c1

SMILES	MIC [µg/mL]
C=C[C@]1(C)C[C@@H](OC(=O)CO)[C@]2(C)[C@H](C)CC[C@]3(CCC(=O)[C@H]32)[C@@H](C)[C@@H]1O [PLEUROMULIN]	2 (≈ 5.28 µM)
